Reference: patent publication US20260028365A1 (BIOGEN MA INC., priority 2022, published 2026)

Tests used:
JH2 domain of human Tyk2 = JH2 domain of human Tyk2 (Homo sapiens (Human), UniProt P29597); assay: JH2 Biochemical Assay (TR-FRET probe displacement); format: binding; details: JH2 domain of human Tyk2, TR-FRET probe displacement
Tyk2 = Tyk2 (Homo sapiens (Human), UniProt P29597); assay: pSTAT4 Cell Assay (MSD, NK92 cells); format: cell-based; details: MSD
Sequence of Tyk2 (P29597 whole entry): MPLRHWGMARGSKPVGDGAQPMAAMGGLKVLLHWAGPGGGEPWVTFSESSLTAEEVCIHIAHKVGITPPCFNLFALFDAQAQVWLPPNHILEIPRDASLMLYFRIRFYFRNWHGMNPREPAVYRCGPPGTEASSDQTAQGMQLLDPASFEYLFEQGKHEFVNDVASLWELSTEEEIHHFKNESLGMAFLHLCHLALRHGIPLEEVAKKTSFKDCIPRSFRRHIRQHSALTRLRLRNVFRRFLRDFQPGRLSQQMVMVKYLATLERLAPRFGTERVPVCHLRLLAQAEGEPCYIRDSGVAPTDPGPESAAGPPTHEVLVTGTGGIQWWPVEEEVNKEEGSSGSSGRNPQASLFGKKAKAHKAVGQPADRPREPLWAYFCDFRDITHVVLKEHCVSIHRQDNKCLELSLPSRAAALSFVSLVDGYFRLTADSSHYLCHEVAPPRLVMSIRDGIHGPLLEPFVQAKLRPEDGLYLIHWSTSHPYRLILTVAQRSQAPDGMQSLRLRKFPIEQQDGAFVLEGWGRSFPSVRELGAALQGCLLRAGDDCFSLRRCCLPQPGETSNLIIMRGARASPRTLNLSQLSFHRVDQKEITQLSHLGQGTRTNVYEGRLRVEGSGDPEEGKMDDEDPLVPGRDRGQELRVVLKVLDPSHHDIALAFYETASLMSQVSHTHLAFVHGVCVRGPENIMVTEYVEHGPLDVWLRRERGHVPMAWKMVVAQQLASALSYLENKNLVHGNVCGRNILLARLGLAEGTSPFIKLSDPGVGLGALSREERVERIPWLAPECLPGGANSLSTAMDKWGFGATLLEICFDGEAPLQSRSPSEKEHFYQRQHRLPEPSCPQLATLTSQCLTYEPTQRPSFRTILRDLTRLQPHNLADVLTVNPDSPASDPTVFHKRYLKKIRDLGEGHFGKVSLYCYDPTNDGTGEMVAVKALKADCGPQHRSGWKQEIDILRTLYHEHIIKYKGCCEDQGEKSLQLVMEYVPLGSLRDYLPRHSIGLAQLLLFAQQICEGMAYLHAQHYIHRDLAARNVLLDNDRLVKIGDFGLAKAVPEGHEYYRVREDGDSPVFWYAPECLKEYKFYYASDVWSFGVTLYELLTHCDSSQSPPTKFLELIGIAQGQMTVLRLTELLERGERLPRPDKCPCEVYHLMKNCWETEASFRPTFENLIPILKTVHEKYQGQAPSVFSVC

Sequence of JH2 domain of human Tyk2 (P29597 575-876): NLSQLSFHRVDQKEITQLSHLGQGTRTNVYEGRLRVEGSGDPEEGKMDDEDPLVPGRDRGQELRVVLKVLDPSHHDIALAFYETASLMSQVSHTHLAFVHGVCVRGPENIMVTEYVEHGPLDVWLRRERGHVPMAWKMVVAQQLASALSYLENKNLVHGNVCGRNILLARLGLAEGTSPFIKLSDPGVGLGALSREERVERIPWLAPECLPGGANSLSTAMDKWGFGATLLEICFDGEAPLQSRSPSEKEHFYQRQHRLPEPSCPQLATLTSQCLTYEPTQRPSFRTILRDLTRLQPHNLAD

SMILES | IC50 (JH2 domain of human Tyk2) [nM] | IC50 (Tyk2) [nM]
COc1cnc(NC(C)=O)cc1Nc1cc(-c2cn(C)nc2C(F)(F)F)nc(C(C)(F)F)n1 [Example 395, N-(4-((2-(1,1-difluoroethyl)-6-(1-methyl-3-(trifluoromethyl)-1H-pyrazol-4-yl)pyrimidin-4-yl)amino)-5-methoxypyridin-2-yl)acetamide] | ≤ 10 | 100 to 1000
COc1cnc(NC(C)=O)cc1Nc1cc(-c2cc(F)c3nc(C)cn3c2)nc(C(C)(F)F)n1 [Example 398, N-(4-((2-(1,1-difluoroethyl)-6-(8-fluoro-2-methylimidazo[1,2-a]pyridin-6-yl)pyrimidin-4-yl)amino)-5-methoxypyridin-2-yl)acetamide] | ≤ 10 | 10 to 100
COc1cnc(NC(C)=O)cc1Nc1cc(-c2ccc3nc(C)cn3n2)nc(C(C)(F)F)n1 [Example 399, N-(4-((2-(1,1-difluoroethyl)-6-(2-methylimidazo[1,2-b]pyridazin-6-yl)pyrimidin-4-yl)amino)-5-methoxypyridin-2-yl)acetamide] | ≤ 10 | 10 to 100
COc1cnc(NC(C)=O)cc1Nc1cc(-c2cc(OC)c3nc(C)cn3c2)nc(C(C)(F)F)n1 [Example 401, N-(4-((2-(1,1-difluoroethyl)-6-(8-methoxy-2-methylimidazo[1,2-a]pyridin-6-yl)pyrimidin-4-yl)amino)-5-methoxypyridin-2-yl)acetamide] | ≤ 10 | 100 to 1000
COc1cnc(NC(C)=O)cc1Nc1cc(-c2cc(C#N)c3nc(C)cn3c2)nc(C(C)(F)F)n1 [Example 402, N-(4-((6-(8-cyano-2-methylimidazo[1,2-a]pyridin-6-yl)-2-(1,1-difluoroethyl)pyrimidin-4-yl)amino)-5-methoxypyridin-2-yl)acetamide] | 10 to 100 | 100 to 1000
CC(=O)Nc1cc(Nc2cc(C)nc(C(C)(F)F)n2)c(OCCF)cn1 [Example 404, N-(4-((2-(1,1-difluoroethyl)-6-methylpyrimidin-4-yl)amino)-5-(2-fluoroethoxy)pyridin-2-yl)acetamide] | ≤ 10 | 10 to 100
CCc1cc(Nc2cc(NC(C)=O)ncc2OCCCF)nc(C(C)(F)F)n1 [Example 405, N-(4-((2-(1,1-difluoroethyl)-6-ethylpyrimidin-4-yl)amino)-5-(3-fluoropropoxy)pyridin-2-yl)acetamide] | ≤ 10 | 10 to 100
CCc1cc(Nc2cc(NC(C)=O)ncc2OCCF)nc(C(C)(F)F)n1 [Example 407, N-(4-((2-(1,1-difluoroethyl)-6-ethylpyrimidin-4-yl)amino)-5-(2-fluoroethoxy)pyridin-2-yl)acetamide] | ≤ 10 | ≤ 10
CO[C@H]1C[C@H](Oc2cnc(NC(C)=O)cc2Nc2cc(C(C)C)nc(C(C)(F)F)n2)C1 [Example 408, N-(4-((2-(1,1-difluoroethyl)-6-isopropylpyrimidin-4-yl)amino)-5-((1r,3r)-3-methoxycyclobutoxy)pyridin-2-yl)acetamide] | ≤ 10 | ≤ 10
CO[C@H]1C[C@@H](Oc2cnc(NC(C)=O)cc2Nc2cc(C(C)C)nc(C(C)(F)F)n2)C1 [Example 409, N-(4-((2-(1,1-difluoroethyl)-6-isopropylpyrimidin-4-yl)amino)-5-((1s,3s)-3-methoxycyclobutoxy)pyridin-2-yl)acetamide] | ≤ 10 | 10 to 100
CC(=O)Nc1cc(Nc2cc(C(C)C)nc(C(C)(F)F)n2)c(O[C@H]2C[C@H](F)C2)cn1 [Example 410, N-(4-((2-(1,1-difluoroethyl)-6-isopropylpyrimidin-4-yl)amino)-5-((1r,3r)-3-fluorocyclobutoxy)pyridin-2-yl)acetamide] | ≤ 10 | ≤ 10
CC(=O)Nc1cc(Nc2cc(C(C)C)nc(C(C)(F)F)n2)c(O[C@H]2C[C@@H](F)C2)cn1 [Example 411, N-(4-((2-(1,1-difluoroethyl)-6-isopropylpyrimidin-4-yl)amino)-5-((1s,3s)-3-fluorocyclobutoxy)pyridin-2-yl)acetamide] | ≤ 10 | 10 to 100
